# “Also recorded” adds a separate entry of the source.
# Tests used:
# Format in all cases: physicochemical
# [1] = Dissolution rate study of griseofulvin compositions (saturation dissolution apparatus); details: for 20% dissolution time: 5 mg gris in 500 ml water at 25°, 100 r.p.m.
# Procedure: A recycling and automatic recording system was used for all dissolution rate studies. The dissolution rate of gris in different physical forms were run in 500 ml. distilled water in a 600 ml. beaker at room temperature.
# Unless otherwise specified, samples of 80 to 200 mesh powder were transferred directly into the dissolution medium and stirred with a stainless steel paddle. The paddle, 5.5 × 2.7 cm., was placed at the center of a 500 ml. dissolution medium and rotated at a rate of 100 r.p.m. The solution was pumped by a peristatic pump (Multi-speed Transmission, model No. 6000-000, available from the Harvard Apparatus Co., Dover, Mass.) at a rate of 80 to 100 ml./min. through a glass filter stick to a 1-cm. flow cell and then back to the dissolution apparatus. The absorbance of the solution is monitored by a recording Beckman DB spectrophotometer at either the miximum peak of gris, 292 mu., or minimum absorbance, 272 mu. depending upon the concentration of gris. In the system of gris-PEG 20,000, 324 mu. was used because of possible interference of absorption by the polymer at 272 mu. The volume of the solution in the tubing of the recycling system is about 10 ml. At the flow rate used, the monitored absorbance will reach 90% of the equilibrium valve in 15 sec. Therefore, the lag time in the measurement of dissolution rate is essentially negligible. In the study of the dissolution rate at room temperature, the water is preadjusted to 25° C. The ambient temperature of the room ranged less than 2° from this temperature.
# Samples of micronized gris and of gris of 100 to 200 mesh particle size distribution were also run. […] All samples were run in duplicate.
# ^a Five milligrams gris in 500 ml. of water at 25°.
# ^b Dissolution times taken from recorded absorbance readings.
# [2] = Solubility of griseofulvin in water; details: 25° C., read-out: solubility of gris
# [3] = Stability of gris on preparing the solid solutions (melting point, spectra, thin layer chromatography); details: following solvent or direct fusion methods
# Source text: A number of tests were made to establish that the gris was not decomposed in any manner following either the solvent or the direct fusion methods of preparing the solid solutions. The melting point, the spectra of the ultra-violet, the infrared and fluorescence are all identical to those of the gris used as a starting material.
# [4] = Dissolution studies involving other materials (time for 20% dissolution); details: in water
# Source text: Dissolution studies were similarly made involving other materials.
SMILES,20% dissolution time [1],time to 20% dissolution [4],also measured
"COC1=CC(=O)C[C@@H](C)[C@]12Oc1c(Cl)c(OC)cc(OC)c1C2=O [100-200 Mesh pure gris, griseofulvin]",60.0 min,–,–
"COC1=CC(=O)C[C@@H](C)[C@]12Oc1c(Cl)c(OC)cc(OC)c1C2=O [Micronized gris (wetted), griseofulvin]",2.0 min,–,–
"COC1=CC(=O)C[C@@H](C)[C@]12Oc1c(Cl)c(OC)cc(OC)c1C2=O [Micronizied gris (nonwetted), griseofulvin]",25.0 min,–,"dissolution rate (in words) ([1]; compared with other gris forms, wetting with 2 ml of 0.2% polysorbate (Tween 20), micronized gris): markedly slower than that of the same powder when wetted first; also recorded: almost the same dissolution rate as the 100-200 mish gris"
"COC1=CC(=O)C[C@@H](C)[C@]12Oc1c(Cl)c(OC)cc(OC)c1C2=O [gris, griseofulvin]",–,–,solubility [2]: 10 µg/mL; decomposition of gris (in words) [3]: no additional spots were detected
CC(=O)OCC(=O)[C@@]1(O)CC[C@H]2[C@@H]3CCC4=CC(=O)CC[C@]4(C)[C@H]3[C@@H](O)C[C@@]21C [hydrocortisone acetate],–,more than 20 minutes,–
C[C@]12CCC(=O)C=C1CC[C@@H]1[C@@H]2CC[C@@]2(C)[C@H]1CC[C@]2(C)O [methyltestosterone],–,2 min,–
"C[C@H]1O[C@@H](O[C@H]2[C@@H](O)C[C@H](O[C@H]3[C@@H](O)C[C@H](O[C@H]4CC[C@@]5(C)[C@H](CC[C@@H]6[C@@H]5CC[C@]5(C)[C@@H](C7=CC(=O)OC7)CC[C@]65O)C4)O[C@@H]3C)O[C@@H]2C)C[C@H](O)[C@@H]1O [microcrystalline digitoxin, digitoxin]",–,about 15 minutes,–
CC(=O)OCC(=O)[C@@]1(O)CC[C@H]2[C@@H]3CCC4=CC(=O)C=C[C@]4(C)[C@H]3[C@@H](O)C[C@@]21C [prednisolone acetate],–,8 min,–

# From patent publication US4151273A, “Increasing the absorption rate of insoluble drugs” (priority 1978, dated 1979)
